The source of these data is patent US20190275324A1, “METHOD FOR TREATING OR PREVENTING A SICKLE-CELL DISEASE AND SYMPTOMS THEREOF” (DIAVEIN, priority 2016, published 2019).

Assay [1] has as its system patients with a severe vaso-occlusive crisis associated with sickle cell disease. Nature of the assay: Clinical study of VEST in combination with NSAID for relief of pain in vaso-occlusive crisis (Example 6), 10-cm VAS for pain. To be noted: all groups also given Perfalgan and Tramadol. The format is in vivo, human. The source says: The objective of the clinical study was to assess the efficacy of VEST in combination with non-steroid anti-inflammatory drugs to manage pain in adult and paediatric patients experimenting a severe vaso-occlusive crisis associated with sickle cell disease.
27 patients suffering from a sickle-cell disease and experimenting a severe vaso-occlusive crisis, with a pain score of at least 6 in the visual analog scale for pain (VAS pain), were enrolled in the study. The enrolled patients comprised 16 adults (of 19 to 35 years) and 11 children (of 8 to 17 years). 8 patients were of HbSS genotype, 19 patients were of HbSC genotype. The enrolled patients comprised 18 male subjects and 9 female subjects.
After their admission at the hospital, 15 patients received pain killer (Perfalgan) and (Tramadol) drugs and the NSAID Diclofenac and were subjected to VEST treatment for 4 hours, with two electrodes under each calf and two electrodes under each arm of the patient.
2 patients received Pain killer (Perfalgan) and (Tramadol) drug and were subjected to VEST treatment for 4 hours, with two electrodes under each calf and two electrodes under each arm of the patient. These patients were not administered with any NSAID. […]
Pain change in each patient was assessed with a 10-cm visual analog scale (VAS) for pain (e.g. as shown in FIG. 4) every two hours, during 6 hours after the beginning of VEST.

The test system of assay [2] is patients with acute vaso-occlusive crisis. To be noted: after 4 hours; patients treated with morphine, Weiner et al.; cited from earlier work.

Take `O=C(O)Cc1ccccc1Nc1c(Cl)cccc1Cl` [NSAID alone, Diclofenac]: the “mean pain score in VAS” value in assay [1] (after 4 hours) and in assay [1] (after 6 hours) was 6 cm throughout.

For the compound `CN1CC[C@]23c4c5ccc(O)c4O[C@H]2[C@@H](O)C=C[C@H]3[C@H]1C5` [morphine], in assay [2], the “mean pain score in VAS” value is given as “higher than 6 cm”.
